These results are taken from patent US20190161480A1, “Chemical Compounds” (GLAXOSMITHKLINE INTELLECTUAL PROPERTY DEVELOPMENT LIMITED, priority 2016, published 2019).

The target in experiment [1] is T1, PI3Kδ (Homo sapiens, UniProt O00329). Briefly: PI3Kδ jump dilution experiment. The class given is biochemical. To be noted: 15 min incubation, 100-fold dilution, read for 30 minutes. The method, then: Irreversibility of the PI3Kδ-Inhibitor complex, and reversibility of the non-covalent controls, was determined by jump-dilution assay as follows:
PI3Kδ enzyme was made up to a 100× assay concentration (final assay concentration=6 nM) in buffer solution (contains 50 mM HEPES pH 7.0 (NaOH), 150 mM NaCl, 10 mM MgCl2, 2.3 mM sodium cholate, 10 μM CHAPS made up in milliQ water).
100× enzyme solution was added to compound wells (20 μL/well), and incubated for 15 mins, after which point the assay was diluted 100-fold with commercially available ADP QUEST substrate solution, available from DiscoverX (calatog number: 90-0071), (3200 μL DiscoverX Reagent A, 6400 μL DiscoverX Reagent B, 1 mM ATP and 40 μM PIP2). Production of fluorescence signal was then measured immediately using a Tecan Safire II plate reader at 30 second intervals for 30 minutes (λex=544 nm, λem=590 nm).

The target in experiment [2] is PI3Kβ (Homo sapiens, UniProt P42338). Briefly: PI3K HTRF assay, PI3K-beta. Note: 400 µM ATP. The class given is biochemical. To be noted: read-out: pIC50 PI3Kβ (converted). As for the experimental part: (§1) The binding of compounds to PI3K-alpha/beta/delta/gamma is determined by homogeneous time resolved fluorescence (HTRF) assays as follows;
(§2) Briefly, solid compound is dissolved in 100% DMSO at a concentration of 2 mM. Dilutions are prepared in 100% DMSO using a 1 in 4 serial step dilution. The dilutions are transferred to black low volume Greiner assay plates ensuring that the DMSO concentration is constant across the plate at 1% (0.1 μL/well).
(§3) PI3K Reaction Buffer (contains 50 mM HEPES pH 7.0 (NaOH), 150 mM NaCl, 10 mM MgCl2, 2.3 mM sodium cholate, […] CHAPS made up in milliQ water). Fresh DTT is added at a final concentration of 1 mM on the day of use.
(§4) Enzyme solutions: 1× PI3K Assay Buffer containing: • 550 pM PI3K-Alpha enzyme (275 pM final assay concentration) • 800 pM PI3K-Beta enzyme (400 pM final assay concentration) • 3 nM PI3K-Delta enzyme (1.5 nM final assay concentration) • 10 nM PI3K-Gamma enzyme (5 nM final assay concentration)
(§5) These concentrations are optimal to achieve a signal:background of between 1.5-4.5. The enzyme solution is added to columns 1-24 (3 μL/well) and plates are incubated for 15 minutes at room temperature.
(§6) Substrate solution: 1× PI3K Assay Buffer containing: • PI3K-Alpha: 500 μM ATP, 20 μM PIP2 and 120 nM biotin-PIP3.
(§7) This is added to all wells and plates are incubated for 1 hour at room temperature.
(§8) Detection solution: PI3K Detection Buffer (contains 50 mM HEPES pH 7.0 (HCl), 150 mM NaCl, 2.3 mM sodium cholate, 10 μM CHAPS, 240 mM potassium fluoride) containing 2 mM DTT (2× final assay concentration), 90 nM GRP-1 PH domain, 300 nM Streptavidin-APC and 24 nM Europium-anti-GST (6× final assay concentrations).
(§9) This is mixed left at room temperature (protected from light).
(§10) STOP solution: PI3K STOP Buffer (contains 50 mM HEPES pH 7.0 (HCl), 150 mM NaCl, 2.3 mM sodium cholate, 10 μM CHAPS, 150 mM EDTA).
(§11) Detection solution is diluted 1:1 with STOP solution and added to all wells (3 μL/well). Plates are covered and incubated on the bench for 45-60 minutes.
(§12) Plates are read on a PerkinElmer Envision, measuring TR-FRET between the complex formed between the GST-tagged PH domain and biotinylated PIP3 which both recruit fluorophores (Europium-labelled anti-GST & Strep-APC respectively). In the […] of an inhibitor, this complex is disrupted by the competitive action of non-biotinylated PIP3 (formed in the assay by the phosphorylation of PIP2 by the kinase & ATP). From this, the ratio of acceptor/donor was calculated (λex=317 nm, Δem donor=615 nm, Δem acceptor=665 nm) and used for data analysis.
A general note: TR-FRET usually uses a lanthanide donor and a delayed reading to cut background.

Experiment [3] has as its target PI3Kγ (Homo sapiens, UniProt P48736). Briefly: PI3K HTRF assay, PI3K-gamma. Note: 15 µM ATP. The class given is biochemical. To be noted: read-out: pIC50 PI3Kγ (converted). As for the experimental part:
as §1, §2, §3, §4, §5, §6, §7, §8, §9, §10, §11, §12

Experiment [4] concerns the target T1, PI3Kδ. Briefly: PI3K HTRF assay, PI3K-delta. Note: 80 µM ATP. The class given is biochemical. To be noted: read-out: pIC50 PI3Kδ (converted). As for the experimental part: as §1, §2, §3, §4, §5, §6, §7, §8, §9, §10, §11, §12
For experiment [5], the target named is PI3Kα (Homo sapiens, UniProt P42336). Briefly: PI3K HTRF assay, PI3K-alpha. Note: 250 µM ATP. The class given is biochemical. Particulars: read-out: pIC50 PI3Kα (converted). As for the experimental part:
as §1, §2, §3, §4, §5, §6, §7, §8, §9, §10, §11, §12

Experiment [6] addresses T1, PI3Kδ. Kind of experiment: Protein mass spectrometry: covalent adduct assessment and competition experiment. The experiment is classed as binding. Particulars: 10:1 inhibitor:protein, incubated overnight. The method, then:
Compounds were incubated with 1 μM protein in a 10:1 inhibitor:protein ratio in buffer containing 50 mM HEPES, pH 7.0 (NaOH), 150 mM NaCl, 10 mM MgCl2, 2.3 mM cholate, 10 μM CHAPS. After the desired time, the assays were quenched with a 10% formic acid solution, and analysed by LCMS using an Agilent 6224 TOF LC/MS equipped with Agilent 1200 Series autosampler. Analytes were separated on a Polymer Labs (Agilent) PLRP-S column (50 mm×1 mm internal diameter, 5 μm particle size). LC conditions were 0.5 mL·min^−1 flow rate, 70° C., 10 μL injection volume. Gradient elution with (A) water containing 0.2% (v/v) formic acid and (B) acetonitrile containing 0.2% (v/v) formic acid. Gradient conditions were initially 10% B, increasing to 30% after 0.5 min, and then linearly to 80% B over 4.5 min, prior to a 1.2 min flush with 100% B and then a 1.9 minute equilibration with 10% B prior to the next injection. Mass spectra were then deconvoluted using Agilent MassHunter Qualitative Analysis version B.06.00 over the mass range 70-170 kDa to obtain the intact protein mass.
A potent reversible ATP competitive inhibitor was incubated with 1 μM protein in a 10:1 inhibitor:protein ratio in buffer containing 50 mM HEPES, pH 7.0 (NaOH), 150 mM NaCl, 10 mM MgCl2, 2.3 mM cholate, 10 μM CHAPS at room temperature. […] The assay was quenched at 5 min and analysed using the procedure detailed above.

Experiment [7] relates to amphetamine-induced psychosis. Particulars: Law et al. 2012; cited from earlier work.
The subject of experiment [8] is Class I PI3-kinases. To be noted: read-out: IC50 against each of the Class I PI3-kinases, cited from earlier work.
Experiment [9] concerns the target CK2 protein kinase. To be noted: literature; cited from earlier work.

The structures appear in SMILES notation. Like-named read-outs stand apart in the source and are kept apart here.

Chain of PI3Kβ (P42338 whole entry, species assumed): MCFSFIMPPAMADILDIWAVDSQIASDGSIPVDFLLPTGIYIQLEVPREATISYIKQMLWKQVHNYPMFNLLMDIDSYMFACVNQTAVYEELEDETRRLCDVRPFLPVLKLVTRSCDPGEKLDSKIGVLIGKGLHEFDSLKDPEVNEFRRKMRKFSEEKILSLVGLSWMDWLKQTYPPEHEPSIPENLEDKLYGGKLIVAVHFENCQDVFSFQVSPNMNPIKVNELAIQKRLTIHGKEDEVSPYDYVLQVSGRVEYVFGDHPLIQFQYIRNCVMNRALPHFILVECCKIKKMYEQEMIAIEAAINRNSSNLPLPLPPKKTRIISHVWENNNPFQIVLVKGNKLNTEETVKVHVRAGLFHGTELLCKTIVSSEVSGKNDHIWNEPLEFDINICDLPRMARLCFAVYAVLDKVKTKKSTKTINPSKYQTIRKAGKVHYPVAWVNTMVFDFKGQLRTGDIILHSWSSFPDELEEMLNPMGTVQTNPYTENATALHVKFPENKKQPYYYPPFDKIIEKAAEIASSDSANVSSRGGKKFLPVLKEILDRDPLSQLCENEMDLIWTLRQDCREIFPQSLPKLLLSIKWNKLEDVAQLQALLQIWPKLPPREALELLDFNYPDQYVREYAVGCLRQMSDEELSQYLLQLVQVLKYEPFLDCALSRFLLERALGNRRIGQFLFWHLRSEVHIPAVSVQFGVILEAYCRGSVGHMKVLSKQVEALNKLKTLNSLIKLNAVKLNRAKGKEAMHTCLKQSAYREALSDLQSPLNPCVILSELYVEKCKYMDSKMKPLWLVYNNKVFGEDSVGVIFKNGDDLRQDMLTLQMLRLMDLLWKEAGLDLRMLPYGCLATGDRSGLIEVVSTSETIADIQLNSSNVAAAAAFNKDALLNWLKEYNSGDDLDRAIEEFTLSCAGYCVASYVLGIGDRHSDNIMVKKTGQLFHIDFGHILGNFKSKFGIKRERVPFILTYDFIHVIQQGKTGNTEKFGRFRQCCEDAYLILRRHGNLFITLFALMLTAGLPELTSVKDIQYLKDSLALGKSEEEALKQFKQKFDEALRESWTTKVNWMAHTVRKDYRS
Chain of PI3Kβ (P27986 whole entry partner, species assumed): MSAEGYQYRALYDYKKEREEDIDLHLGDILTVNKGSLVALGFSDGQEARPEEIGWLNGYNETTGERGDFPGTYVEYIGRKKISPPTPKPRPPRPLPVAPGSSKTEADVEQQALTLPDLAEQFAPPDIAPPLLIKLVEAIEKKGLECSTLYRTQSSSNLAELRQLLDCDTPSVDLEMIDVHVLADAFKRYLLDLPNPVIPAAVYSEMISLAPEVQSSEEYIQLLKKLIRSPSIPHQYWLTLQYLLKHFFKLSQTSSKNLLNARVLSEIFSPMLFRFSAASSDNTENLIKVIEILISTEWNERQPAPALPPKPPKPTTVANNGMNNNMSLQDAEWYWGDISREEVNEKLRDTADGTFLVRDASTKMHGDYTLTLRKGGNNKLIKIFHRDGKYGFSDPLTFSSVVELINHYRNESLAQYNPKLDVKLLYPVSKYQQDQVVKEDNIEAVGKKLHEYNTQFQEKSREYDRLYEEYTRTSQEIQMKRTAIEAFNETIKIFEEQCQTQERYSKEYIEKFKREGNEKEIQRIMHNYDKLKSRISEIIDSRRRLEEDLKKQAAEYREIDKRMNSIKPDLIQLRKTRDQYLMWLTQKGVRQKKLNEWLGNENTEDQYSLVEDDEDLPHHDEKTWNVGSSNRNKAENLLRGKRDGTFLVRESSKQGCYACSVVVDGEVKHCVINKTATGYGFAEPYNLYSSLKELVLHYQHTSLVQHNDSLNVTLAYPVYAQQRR
T1 sequence (O00329 whole entry): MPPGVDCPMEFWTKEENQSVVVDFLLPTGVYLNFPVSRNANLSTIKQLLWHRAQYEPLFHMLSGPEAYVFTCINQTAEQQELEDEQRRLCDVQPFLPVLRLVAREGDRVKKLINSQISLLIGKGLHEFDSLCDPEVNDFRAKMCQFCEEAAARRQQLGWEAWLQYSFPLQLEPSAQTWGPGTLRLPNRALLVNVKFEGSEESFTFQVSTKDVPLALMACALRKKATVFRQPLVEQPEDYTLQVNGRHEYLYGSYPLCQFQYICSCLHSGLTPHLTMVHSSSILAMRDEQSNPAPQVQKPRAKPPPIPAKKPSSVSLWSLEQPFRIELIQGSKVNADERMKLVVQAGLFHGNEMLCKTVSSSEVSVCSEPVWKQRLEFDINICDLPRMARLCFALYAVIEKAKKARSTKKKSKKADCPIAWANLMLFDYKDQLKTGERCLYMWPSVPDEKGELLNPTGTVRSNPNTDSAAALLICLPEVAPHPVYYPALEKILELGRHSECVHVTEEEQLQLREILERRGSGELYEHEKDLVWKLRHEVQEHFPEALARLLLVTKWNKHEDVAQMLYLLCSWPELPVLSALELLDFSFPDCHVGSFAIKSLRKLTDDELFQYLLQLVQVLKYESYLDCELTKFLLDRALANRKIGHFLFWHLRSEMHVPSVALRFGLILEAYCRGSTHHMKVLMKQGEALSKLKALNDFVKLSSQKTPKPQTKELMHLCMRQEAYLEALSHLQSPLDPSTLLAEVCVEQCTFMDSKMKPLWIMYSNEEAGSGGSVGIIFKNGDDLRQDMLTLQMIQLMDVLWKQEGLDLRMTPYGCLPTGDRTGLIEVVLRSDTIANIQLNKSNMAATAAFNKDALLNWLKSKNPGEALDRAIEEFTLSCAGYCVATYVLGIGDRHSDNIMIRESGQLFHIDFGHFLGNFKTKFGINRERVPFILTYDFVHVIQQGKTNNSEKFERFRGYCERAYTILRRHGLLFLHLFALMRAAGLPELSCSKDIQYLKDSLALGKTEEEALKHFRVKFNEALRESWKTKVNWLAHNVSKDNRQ
T1 sequence (P27986 whole entry partner): as the sequence (P27986 whole entry partner, species assumed) above
Chain of PI3Kα (P42336 whole entry, species assumed): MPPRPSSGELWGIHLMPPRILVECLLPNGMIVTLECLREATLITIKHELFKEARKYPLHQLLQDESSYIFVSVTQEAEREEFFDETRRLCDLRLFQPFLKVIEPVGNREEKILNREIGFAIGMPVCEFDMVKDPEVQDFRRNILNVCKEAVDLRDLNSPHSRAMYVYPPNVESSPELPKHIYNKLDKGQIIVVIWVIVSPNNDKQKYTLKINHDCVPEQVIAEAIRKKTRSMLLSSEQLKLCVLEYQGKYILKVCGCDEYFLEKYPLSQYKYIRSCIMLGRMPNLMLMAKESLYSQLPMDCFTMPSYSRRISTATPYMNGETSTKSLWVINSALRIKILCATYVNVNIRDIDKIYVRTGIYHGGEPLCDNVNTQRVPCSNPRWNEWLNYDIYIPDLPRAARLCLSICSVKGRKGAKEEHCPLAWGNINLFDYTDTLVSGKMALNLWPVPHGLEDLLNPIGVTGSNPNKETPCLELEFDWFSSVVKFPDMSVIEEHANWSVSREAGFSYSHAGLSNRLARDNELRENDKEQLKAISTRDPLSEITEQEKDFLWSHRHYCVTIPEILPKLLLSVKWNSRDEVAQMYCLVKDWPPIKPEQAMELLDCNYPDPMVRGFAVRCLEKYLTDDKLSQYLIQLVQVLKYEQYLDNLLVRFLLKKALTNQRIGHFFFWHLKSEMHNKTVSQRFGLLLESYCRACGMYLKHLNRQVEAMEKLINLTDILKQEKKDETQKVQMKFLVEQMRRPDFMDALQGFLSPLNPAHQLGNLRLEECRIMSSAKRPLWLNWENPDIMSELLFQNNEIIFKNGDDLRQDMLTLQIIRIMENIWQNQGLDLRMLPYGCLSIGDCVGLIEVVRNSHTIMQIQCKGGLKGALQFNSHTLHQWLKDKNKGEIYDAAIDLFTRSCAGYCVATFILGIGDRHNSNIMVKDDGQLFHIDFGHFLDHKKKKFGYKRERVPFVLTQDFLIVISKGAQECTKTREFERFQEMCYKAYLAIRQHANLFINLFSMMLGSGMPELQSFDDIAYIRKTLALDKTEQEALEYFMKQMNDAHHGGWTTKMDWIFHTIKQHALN
Chain of PI3Kα (P27986 whole entry partner, species assumed): as the sequence (P27986 whole entry partner, species assumed) above
Chain of PI3Kγ (P48736 whole entry, species assumed): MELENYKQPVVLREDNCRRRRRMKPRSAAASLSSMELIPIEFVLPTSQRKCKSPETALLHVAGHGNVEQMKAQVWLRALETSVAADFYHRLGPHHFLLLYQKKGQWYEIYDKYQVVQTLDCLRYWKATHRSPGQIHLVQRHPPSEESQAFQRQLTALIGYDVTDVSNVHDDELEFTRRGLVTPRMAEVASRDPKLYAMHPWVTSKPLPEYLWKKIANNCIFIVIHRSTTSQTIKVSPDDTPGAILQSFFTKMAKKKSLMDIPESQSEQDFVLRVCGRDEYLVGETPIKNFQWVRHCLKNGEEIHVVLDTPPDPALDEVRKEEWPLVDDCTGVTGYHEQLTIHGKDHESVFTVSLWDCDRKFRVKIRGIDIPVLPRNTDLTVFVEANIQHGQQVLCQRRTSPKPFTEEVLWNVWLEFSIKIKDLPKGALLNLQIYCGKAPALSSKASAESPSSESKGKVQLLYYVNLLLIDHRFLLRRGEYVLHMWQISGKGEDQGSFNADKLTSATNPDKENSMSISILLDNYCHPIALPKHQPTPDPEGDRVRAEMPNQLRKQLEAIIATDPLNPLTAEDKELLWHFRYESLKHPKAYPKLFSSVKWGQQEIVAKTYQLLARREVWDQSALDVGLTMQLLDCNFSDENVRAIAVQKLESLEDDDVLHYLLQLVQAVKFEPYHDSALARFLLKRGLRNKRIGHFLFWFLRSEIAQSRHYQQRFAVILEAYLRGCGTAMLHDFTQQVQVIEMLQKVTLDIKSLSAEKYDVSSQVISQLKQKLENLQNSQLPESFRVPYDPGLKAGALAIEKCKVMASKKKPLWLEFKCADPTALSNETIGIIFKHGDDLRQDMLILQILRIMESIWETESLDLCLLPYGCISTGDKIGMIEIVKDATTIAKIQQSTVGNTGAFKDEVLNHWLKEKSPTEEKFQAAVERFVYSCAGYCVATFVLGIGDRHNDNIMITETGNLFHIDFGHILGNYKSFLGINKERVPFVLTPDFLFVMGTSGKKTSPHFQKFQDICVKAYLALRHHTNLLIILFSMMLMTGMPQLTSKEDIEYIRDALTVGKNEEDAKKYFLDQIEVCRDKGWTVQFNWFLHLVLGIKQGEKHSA

Regarding `COC(=O)c1cc(-c2cc(-c3ncc(CN4CCN(C(C)C)CC4)o3)c3cn[nH]c3c2)cnc1OC.O=CO` [Example 1, Methyl 5-(4-(5-((4-isopropylpiperazin-1-yl)methyl)oxazol-2-yl)-1H-indazol-6-yl)-2-methoxynicotinate], the “Recovery of enzyme activity after jump dilution” value in experiment [1] is recorded as “Recovery of enzyme activity was observed”. The IC50 in experiment [2] is over 31.6 µM; in [3], over 31.6 µM; in experiment [4], 0.0398 µM; in experiment [5], 10 µM.
For `COc1ncc(-c2cc(-c3ncc(CN4CCN(C(C)C)CC4)o3)c3cn[nH]c3c2)cc1C(=O)O` [Example 2, 5-(4-(5-((4-Isopropylpiperazin-1-yl)methyl)oxazol-2-yl)-1H-indazol-6-yl)-2-methoxynicotinic acid], the “Covalent modification of PI3Kδ (protein mass spectrometry)” value in experiment [6] is reported as “no modification”. For the same molecule, the “Recovery of enzyme activity after jump dilution” value in [1] is “Recovery of enzyme activity was observed”. In addition, the IC50 in experiment [2] was 20 µM; in [3], 15.8 µM; in experiment [4] it was 0.0126 µM; in experiment [5] it was 12.6 µM.
With `COc1ncc(-c2cc(-c3ncc(CN4CCN(C(C)C)CC4)o3)c3cn[nH]c3c2)cc1C(=O)Oc1ccccc1[N+](=O)[O-]` [Example 3, 2-Nitrophenyl 5-(4-(5-((4-isopropylpiperazin-1-yl)methyl)oxazol-2-yl)-1H-indazol-6-yl)-2-methoxynicotinate], the IC50 in [2] was 0.2 µM; in experiment [3], 3.16 µM; in experiment [4], 0.00501 µM; in experiment [5], 0.0794 µM.
Regarding `COc1ncc(-c2cc(-c3ncc(CN4CCN(C(C)C)CC4)o3)c3cn[nH]c3c2)cc1C(=O)Oc1ccc([N+](=O)[O-])cc1` [Example 4, 4-Nitrophenyl 5-(4-(5-((4-isopropylpiperazin-1-yl)methyl)oxazol-2-yl)-1H-indazol-6-yl)-2-methoxynicotinate], the IC50 in experiment [2] is 0.0631 µM; in experiment [3], 1.58 µM; in [4] it was 0.000631 µM; in [5], 0.00631 µM.
In the case of `COc1ncc(-c2cc(-c3ncc(CN4CCN(C(C)C)CC4)o3)c3cn[nH]c3c2)cc1C(=O)Oc1ccccc1C(F)(F)F` [Example 5, 2-(Trifluoromethyl)phenyl 5-(4-(5-((4-isopropylpiperazin-1-yl)methyl)oxazol-2-yl)-1H-indazol-6-yl)-2-methoxynicotinate], the IC50 in [2] is 2 µM; in experiment [3], 7.94 µM; in experiment [4], 0.00631 µM; in [5], 1 µM.
As for `COc1ncc(-c2cc(-c3ncc(CN4CCN(C(C)C)CC4)o3)c3cn[nH]c3c2)cc1C(=O)Oc1ccc(C(F)(F)F)cc1` [Example 6, 4-(Trifluoromethyl)phenyl 5-(4-(5-((4-isopropylpiperazin-1-yl)methyl)oxazol-2-yl)-1H-indazol-6-yl)-2-methoxynicotinate], the IC50 is 6.31 µM in experiment [2], 25.1 µM in [3], 0.00398 µM in [4] and 2 µM in experiment [5].
Turning to `COc1ncc(-c2cc(-c3ncc(CN4CCN(C(C)C)CC4)o3)c3cn[nH]c3c2)cc1C(=O)Oc1ccccc1` [Example 8, Phenyl 5-(4-(5-((4-isopropylpiperazin-1-yl)methyl)oxazol-2-yl)-1H-indazol-6-yl)-2-methoxynicotinate], the IC50 is 3.98 µM in experiment [2], 12.6 µM in experiment [3], 0.00631 µM in [4] and 2.51 µM in experiment [5].
On to `COc1ncc(-c2cc(-c3ncc(CN4CCN(C(C)C)CC4)o3)c3cn[nH]c3c2)cc1C(=O)Oc1ccc(C)cc1C` [Example 9, 2,4-Dimethylphenyl 5-(4-(5-((4-isopropylpiperazin-1-yl)methyl)oxazol-2-yl)-1H-indazol-6-yl)-2-methoxynicotinate], for which the IC50 in [2] is 15.8 µM; in [3], 10 µM; in experiment [4], 0.398 µM; in experiment [5], 7.94 µM.
Take `COc1ccc(OC(=O)c2cc(-c3cc(-c4ncc(CN5CCN(C(C)C)CC5)o4)c4cn[nH]c4c3)cnc2OC)cc1` [Example 10, 4-Methoxyphenyl 5-(4-(5-((4-isopropylpiperazin-1-yl)methyl)oxazol-2-yl)-1H-indazol-6-yl)-2-methoxynicotinate]: the IC50 in experiment [2] is 12.6 µM; in [3] it was 10 µM; in experiment [4], 0.0501 µM; in experiment [5], 15.8 µM.
On the same counts, the results for `COc1ncc(-c2cc(-c3ncc(CN4CCN(C(C)C)CC4)o3)c3cn[nH]c3c2)cc1C(=O)OCC(F)(F)F` [Example 11, 2,2,2-Trifluoroethyl 5-(4-(5-((4-isopropylpiperazin-1-yl)methyl)oxazol-2-yl)-1H-indazol-6-yl)-2-methoxynicotinate] are over 31.6 µM, 20 µM, 0.316 µM and 15.8 µM.
For the molecule `Cc1ccccc1-n1c(Cn2cnc3c(N)ncnc32)nc2cccc(C)c2c1=O` [IC87114], the “Efficacy in mouse model of amphetamine-induced psychosis” value in experiment [7] was “remarkable efficacy”.
As for `O=c1cc(N2CCOCC2)oc2c(-c3ccccc3)cccc12` [LY294002], the IC50 was 15 to 20 µM in [8] (Fruman et al. 1998) and 5 to 10 µM in [9].
For `COC[C@H]1OC(=O)c2coc3c2[C@@]1(C)C1=C(C3=O)[C@@H]2CCC(=O)[C@@]2(C)C[C@H]1OC(C)=O` [Wortmannin], the IC50 in experiment [8] (literature) was 0.001 to 0.01 µM.
